Data set [1] can be described thus: Particle size by laser diffraction (Mastersizer 2000, Scirocco 2000 dry dispersion). The class given is physicochemical. Here is the method:
(§1) Particle size analysis by laser diffraction was conducted in a Malvern Mastersizer 2000 using a Scirocco 2000 dry dispersion unit.
Characterization and understanding of the particle and bulk properties of the API, the excipients, and blends were important in the development and manufacturing of pharmaceutical formulations and finished products. Size, shape, bulk density and flow properties of CIPRO, excipients (specifically fillers), and blends were characterized to assist in formulation development. The particle size of CIPRO and excipients were measured in the Scirocco 2000, dry powder dispersion unit of Mastersizer 2000 particle size analyzer (Malvern Instruments Ltd.). CIPRO or excipient was placed in the enclosed vibratory tray of Scirocco 2000. The Scirocco 2000 uses compressed air to transport and suspend the particles of the sample while they pass through the air cell. The vibratory tray of Scirocco 2000 was vibrated to feed the powder at the 50% feed rate setting. The powder was dispersed through the air cell at an air pressure of 2 bar. The Mastersizer 2000 reported volume-weighted particle sizes. The median size of fumed silica CAB-O-SIL® M-5P is about 14 nm.

Data set [2] in a line: Powder compressibility (FT4 Powder Rheometer). Type of data set: physicochemical. As for the experimental part:
(§2) The bulk density was measured using the conditioned bulk density test, performed before any other test in the FT4. Powder flow property was measured using the shear cell test. The compressibility of the powders under investigation was also measured. Bulk density is an important parameter for determining the amount of powder that can fit in space such as blender, hopper of a tablet press or a tablet die. The shear test yields various powder flow measurements including a flow coefficient. The flow function coefficient (FFC) is used as an indicator of the flowability of a powder and is defined as the ratio of the major principle stress to the unconfined yield strength. The FFC was obtained using a normal stress of 3 kPa. FFC values can be separated into different regimes: FFC<1, not flowing; 1<FFC<2, very cohesive; 2<FFC<4, cohesive; 4<FFC<10, easy flowing, and FFC>10, free-flowing. Powder compressibility was also measured. Compressibility is not a direct measurement of flowability; however a free-flowing powder usually has a low compressibility value. A compressibility value greater than 30% indicates poor powder flow.

The nature of data set [3]: Karl Fischer analysis of lattice water. The class given is physicochemical. The note with it: KF analysis of oven dried samples. Here is the method:
as §1
Furthermore, no significant loss of crystallinity can be observed from the baseline. The lattice water content can be quantified from KF analysis of the off-line oven dried samples collected at different times during the process. […] As expected, the cake contains approximately 19 wt % water at the start of the drying process, coming from the residual wash solvent that contains 20 vol % water (24 wt %), but diluted by the solid API. […] This value is in accordance with the observations from XRPD analysis, with the monohydrate salt of ciprofloxacin HCl having a 4.7 wt % stoichiometric water content. As the drying step progresses, the total water concentration in the cake decreases while the lattice water is maintained constant. With the USP specifications giving a target water content between 4.7 and 6.7 wt %, the obtained drug substance started meeting the specifications after 50 min of drying. This time coincides with the point at which the cake dry matter content was near 100%.

For data set [4] the following is noted: after 140 min of drying, 50° C., 0.5 bar.
Data set [5] can be described thus: Shear cell test, flow function coefficient (FT4 Powder Rheometer). Type of data set: physicochemical. As for the experimental part: as §2
[6] abbreviates: processed CIPRO particles, Table 3.
Setting [7] is: processed CIPRO particles, Table 3, Hydrochloride Monohydrate.
Where [8] appears, read: Table 2 materials, volume-weighted, dry dispersion 2 bar.

Here are results for 7 molecules from US11911719B2, “Devices and methods for the integrated filtration, drying, and mechanical processing of active pharmaceutical ingredients” (Massachusetts Institute of Technology, priority 2019, dated 2024).

Counter-ions that a name gives are not always drawn.

With `O=C(O)c1cn(C2CC2)c2cc(N3CCNCC3)c(F)cc2c1=O` [CIPRO (Commercial, un-processed), Ciprofloxacin Hydrochloride Monohydrate], in data set [1] (setting [6]), the “Particle size d10” value amounted to 3.75 μm, the “Particle size d50” value was found to be 12.49 μm and the “Particle size d90” value was found to be 439.56 μm. In data set [2] (setting [6]), this molecule showed a Compressibility of 38.9%.

On to `Cl.O.O=C(O)c1cn(C2CC2)c2cc(N3CCNCC3)c(F)cc2c1=O` [CIPRO (US & Krups Grinder), Ciprofloxacin Hydrochloride Monohydrate], for which, in data set [1] (setting [7]), the “Particle size d10” value was found to be 1.93 μm, the “Particle size d50” value was 7.09 μm and the “Particle size d90” value turned out to be 65.36 μm. The molecule also returned a Compressibility in data set [2] (setting [7]) of 38.8%.

With `Cl.O.O=C(O)c1cn(C2CC2)c2cc(N3CCNCC3)c(F)cc2c1=O` [CIPRO (US & Morter-Pastle), Ciprofloxacin Hydrochloride Monohydrate], in data set [1] (setting [7]), the “Particle size d10” value worked out at 3.01 μm, the “Particle size d50” value came to 8.67 μm and the “Particle size d90” value is on record as 24.02 μm. Also, the Compressibility in data set [2] (setting [7]) is 43.6%.

Turning to `Cl.O.O=C(O)c1cn(C2CC2)c2cc(N3CCNCC3)c(F)cc2c1=O` [CIPRO (w/o US, Grinder designed at MIT), Ciprofloxacin Hydrochloride Monohydrate], in data set [1] (setting [7]), the “Particle size d10” value is reported as 2.82 μm, the “Particle size d50” value was 14.45 μm and the “Particle size d90” value came out at 169.73 μm.

On to `Cl.O.O=C(O)c1cn(C2CC2)c2cc(N3CCNCC3)c(F)cc2c1=O` [CIPRO (w/o US, Krups Grinder), Ciprofloxacin Hydrochloride Monohydrate], for which, in data set [1] (setting [7]), the “Particle size d10” value amounted to 1.23 μm, the “Particle size d50” value was 3.88 μm and the “Particle size d90” value was 33.26 μm. Also, the Compressibility in data set [2] (setting [7]) is 52.6%. The same molecule returned a Compressibility in data set [2] (processed CIPRO particles, Table 3, listed as CIPRO (w/o use of a Krups Grinder), Hydrochloride Monohydrate) of 52.6%.

As to `O=C(O)c1cn(C2CC2)c2cc(N3CCNCC3)c(F)cc2c1=O` [Ciprofloxacin HCl (CIPRO), Ciprofloxacin Hydrochloride Monohydrate], in data set [3], the “Lattice water content of the crystalline phase” value is given as 6.2 wt %. Moreover, the “Crystal structure after drying (XRPD)” value in data set [4] was “retained the original crystal structure”.

Turning to Magnesium stearate, in data set [5] (Table 2 materials, normal stress of 3 kPa), the “FFC (Flow function coefficient)” value amounted to 5.18. In data set [5] (based on FFC), the “Flowability by Schulze classification” value was “flows easily”. For the same molecule, in data set [1] (setting [8]), the “Particle size d10” value is recorded as 2.76 μm, the “Particle size d50” value is recorded as 6.86 μm and the “Particle size d90” value stood at 15.10 μm. The Compressibility in data set [2] (Table 2 materials) is on record as 38.97%.
